Data: patent US20120141491A1, “METHODS AND COMPOSITIONS FOR THE TREATMENT OF CANCERS AND PATHOGENIC INFECTIONS” (priority 2009, published 2012)
Entries after “also recorded” stand apart in the source; their conditions may differ. Where two headings read alike, the source gives them in different places.

Tests used:
Assay type in all cases: cell-based
[1] = system: Saos-2 osteosarcoma cells expressing GFP-LC3; experiment: Autophagy response by punctate localization of GFP-LC3 to autophagic vacuoles, fluorescence microscopy; conditions: for Activate Autophagy Response: Table 1; for Induction of autophagy: Table 2; for Enhancement of autophagy (GFP-LC3 at autophagic vacuoles) / Stimulation of autophagy compared with amino acid and serum starved cells (FIG. 2G): enriched (Fed) medium; for Stimulation of autophagy compared with amino acid and serum starved cells (FIG. 2G): 100 μM
Method: FIGS. 2A-2G. Activation of autophagy by Bcl-XL targeting compounds. The positions of C2 in Site 1 (FIG. 2A), C5 in Site 1 (FIG. 2B), and C8 in Site 2 (FIG. 2C) of Bcl-xl are shown by in silico molecular docking. Saos-2 osteosarcoma cells expressing GFP-LC3 were incubated in enriched (Fed) medium in the presence of C2 (FIG. 2D), C5 (FIG. 2E) and C8 (FIG. 2F) Bcl-targeted compounds. GFP-LC3 is found diffuse throughout the cytosol and nucleus when autophagy is suppressed. Ongoing autophagy can be visualized by the presence of GFP-LC3 at autophagic vacuoles (AVs) that appear as dots (arrows). […] In FIG. 2E, Saos-2 osteosarcoma cells expressing GFP-LC3 were incubated in enriched (Fed) medium in the absence and presence of Bcl-targeted compounds or in medium lacking amino acids and serum (Starved).
FIG. 4A-4F. Activation of autophagy by Bcl-targeted compounds. The localization of GFP-LC3 to autophagic vacuoles was enhanced by […] Bcl-targeted compounds in Saos-2 osteosarcoma cells. The autophagy response in fed Saos2 cells was measured in the absence and presence of anti-Bcl compounds by visualizing the punctate localization of GFP-LC3 (FIGS. 4A-4C) and RFP-GFP-LC3 (FIGS. 4D-4F) to autophagic vacuoles. In untreated fed cells, the GFP-LC3 is localized uniformly throughout the cell. […] Autophagy in cells expressing RFP-GFP-LC3 (FIGS. 4D-4F) was activated with compound B2-1. Structures containing RFP (red, FIG. 4D) and GFP (green, FIG. 4E) are autophagosomes (arrow), while RFP (red, FIG. 4D) structures are autolysosomes (arrowhead).
(§1) FIGS. 5A-5C. Characterization of proBeclin 1 compounds. Upon ranking 100 NCl compounds by in silico docking to Bcl-xl, the autophagy responses were evaluated in fed Saos-2 cells expressing GFP-LC3 (FIG. 5A). […] Cells were maintained in nutrient-rich medium in the absence and presence of Bcl-targeted compounds for 4 hr. The cells were then solubilized, Beclin 1 complex immunoprecipitated, and the Beclin 1 hound proteins identified by Western blotting (FIG. 5C). The IgG-LC is the immunoglobin light chain of the anti-Beclin 1 antibody that was used to immunoprecipitate the complex. The absence of Bcl-xl is indicative of an inhibition of Beclin 1 binding.
This was done in Saos-2 osteosarcoma cells stably expressing the autophagosome marker, GFP-LC3. In fed cells not undergoing autophagy GFP-LC3 is a soluble protein found throughout the cytosol. In amino acid and serum starved cells, autophagy is activated and GFP-LC3 becomes associated with autophagic vacuoles that can be visualize by fluorescence microscopy.
(§2) When autophagy is suppressed, GFP-LC3 distributes uniformly throughout the cellular cytoplasm (FIG. 4A). Autophagy response can be observed by visualizing the punctuate pattern of GFP-LC3 indicative of the presence of autophagic vacuoles. We can also use tandem-labeled LC3, RFP-GFP-LC3 to better assess the dynamics of the autophagy response by visualizing both autophagosomes and autolysosomes (FIG. 4D-4F). […] To further substantiate that the accumulation of GFP-LC3 structures is not due to a blockage of basal autophagy but the positive effects of the compounds on the autophagy response, the autophagy response is validated by quantitative protein turnover measures using radiolabeled amino acids (FIG. 5B). Finally, we determine whether the compound interferes with Beclin 1 binding to Bcl-xl (FIG. 5C) and Bcl-2 as we would suspect if the compound acts through the intended novel mechanism of action.

[2] = system: protein degradation; experiment: Protein degradation by pulse-chase methods using 14C-valine; conditions: for Rates of protein degradation (FIG. 5B): 14C-valine pulse-chase, compared to a control compound, n=6; for Stimulate Protein Degradation: Table 1; for Proteolysis, bar coding of FIG. 5A: black bar stimulated, striped bar inhibited
Method: as §1, §2

[3] = system: Beclin 1/Bcl binding; experiment: Beclin 1/Bcl binding by immunoprecipitation with anti-Beclin 1 antibodies and Western blotting; conditions: for Inhibit Beclin 1 Binding: Table 1; for Beclin 1 binding to Bcl-xl / Bcl proteins: nutrient-rich medium, 4 hr
Description: FIGS. 5A-5C. Characterization of proBeclin 1 compounds. […] Cells were maintained in nutrient-rich medium in the absence and presence of Bcl-targeted compounds for 4 hr. The cells were then solubilized, Beclin 1 complex immunoprecipitated, and the Beclin 1 hound proteins identified by Western blotting (FIG. 5C). The IgG-LC is the immunoglobin light chain of the anti-Beclin 1 antibody that was used to immunoprecipitate the complex.
Autophagy response can be observed by visualizing the punctuate pattern of GFP-LC3 indicative of the presence of autophagic vacuoles. We can also use tandem-labeled LC3, RFP-GFP-LC3 to better assess the dynamics of the autophagy response by visualizing both autophagosomes and autolysosomes (FIG. 4D-4F). […] Finally, we determine whether the compound interferes with Beclin 1 binding to Bcl-xl (FIG. 5C) and Bcl-2 as we would suspect if the compound acts through the intended novel mechanism of action.

[4] = system: NeuT cells
Method: FIGS. 3A-3E. Effects of Bcl-XL targeted small compounds on the autophagy response and cell survival in NeuT cells. The positions of C4 in Site 1 (FIG. 3A), and C9 in Site 2 (FIG. 3B) of Bcl-xl are shown by in silico molecular docking. NeuT (Her2-positive breast cancer cell line) cells expressing GFP-LC3 were incubated in enriched (Fed) medium in the presence of C4 (FIG. 3C) and C9 (FIG. 3D) Bcl-targeted compounds. GFP-LC3 is found on autophagic vacuole that appear as dots (arrows). In FIG. 3E, the survival of NeuT cells was quantified after 20h of treatment with 0.1-1000 μM of Site 1 (C2 and C4) and Site 2 (C7 and C9) compounds.
Cell survival is suppressed by Bcl2-targeted compounds: Next, we examined the effects of the Bcl-xl targeted compounds C2, C4, C7, and C9 on autophagy and cell death in Her2/Neu-positive NeuT breast carcinoma cells (FIGS. 3A-E).

| Structure (SMILES) | Activate Autophagy Response [1] | Induction of autophagy [1] | Enhancement of autophagy (GFP-LC3 at autophagic vacuoles) [1] | Stimulate Protein Degradation [2] | Inhibit Beclin 1 Binding [3] | further results |
| --- | --- | --- | --- | --- | --- | --- |
| O=C(O)CCn1c(=O)[nH]c(=O)n(CCC(=O)O)c1=O [NSC11693] | Yes | NSC 11693 Induces autophagy; not tested for the induction of cell death | – | – | – | – |
| CN(C)CCNNC1CCCN(C)C1 (stereo not drawn) [NSC21689] | Yes | – | activate autophagy | Yes | No | Rates of protein degradation (FIG. 5B) [2]: activate; Beclin 1 binding to Bcl-xl / Bcl proteins ([3]; listed as Bx-16): did not; also recorded: do not appear to affect Beclin 1 binding; also recorded: does not inhibit Beclin 1 binding as well as Bx-8 |
| C1CC2NCCC3NCCC(N1)N32 (stereo not drawn) [NSC81462, Dodecahydro-1,4,7,9b-tetraazaphenalene] | Yes | – | stimulate autophagy | Yes | Yes | Rates of protein degradation (FIG. 5B) ([2]; listed as Bx-8): elevated; also recorded: stimulate; Proteolysis, bar coding of FIG. 5A [2]: stimulated proteolysis; Beclin 1 binding to Bcl-xl / Bcl proteins ([3]; listed as Bx-8): inhibited Beclin 1 binding; also recorded: inhibiting Beclin 1 binding |
| O=C1/C(=N\Nc2cc(Cl)ccc2O)C(S(=O)(=O)O)=Cc2cc(S(=O)(=O)O)cc(O)c21 [NSC100234, (3E)-3-[(5-chloro-2-hydroxyphenyl)hydrazinyleidene]-5-hydroxy-4-oxonapthalene-2,7-disulfonic acid] | Yes | – | stimulate autophagy | Yes | Yes | Rates of protein degradation (FIG. 5B) [2]: stimulate; Beclin 1 binding to Bcl-xl / Bcl proteins [3]: inhibiting Beclin 1 binding |
| O=C(c1ccc(Cl)cc1)C(C(c1ccc([N+](=O)[O-])cc1)N1CCCCC1)N1CCCCC1 (stereo not drawn) [NSC150193, 1-(4-chlorophenyl)-3-(4-nitrophenyl)-2,3-di(piperidin-1-yl)propan-1-one] | Yes | NSC 150193 Induces autophagy; not tested for the induction of cell death | stimulate autophagy | Yes | Yes | Rates of protein degradation (FIG. 5B) ([2]; listed as B2-7): elevated; also recorded: stimulate; Proteolysis, bar coding of FIG. 5A [2]: stimulated proteolysis; Beclin 1 binding to Bcl-xl / Bcl proteins [3]: inhibiting Beclin 1 binding |
| Clc1cc(Cl)c(C[N+]23CN4CN(CN(C4)C2)C3)cc1Cl.[Cl-] [NSC155877, 3,5,7-Triaza-1-axoniaadamantane, 1-(2,4,5-trichlorobenzyl)-, chloride] | Yes | – | – | – | No | – |
| OC(CCl)CN1CC[N+]2(CC1)CC[N+]1(CCN(CC(O)CCl)CC1)CC2.[Cl-].[Cl-] (stereo not drawn) [NSC166100, 3,12-Bis(3-chloro-2-hydroxypropyl)-3,12-diaza-6,9-diazoniadispiro[5.2.5.2]hexadecane dichloride] | Yes | Induces | – | – | No | Stimulation of autophagy compared with amino acid and serum starved cells (FIG. 2G) [1]: promote autophagy |
| CN(C)CC(CN1c2ccccc2Sc2ccccc21)N(C)C (stereo not drawn) [NSC169468] | Yes | NSC 169468 Induces autophagy; not tested for the induction of cell death | – | – | – | Stimulation of autophagy compared with amino acid and serum starved cells (FIG. 2G) [1]: stimulated autophagy to levels seen in amino acid and serum starved cells |
| CC1CC(C)(C)NCCNC(C)CC(C)(C)NCCN1 (stereo not drawn) [NSC175445, 5,5,7,12,12,14-hexamethyl-1,4,8,11-tetrazacyclotetradecane] | Yes | NSC 175445 Induces autophagy; not tested for the induction of cell death | stimulate autophagy | – | Yes | Proteolysis, bar coding of FIG. 5A [2]: stimulated proteolysis; Beclin 1 binding to Bcl-xl / Bcl proteins ([3]; listed as B2-11): inhibited Beclin 1 binding; also recorded: interfere with Beclin 1 binding |
| CC(=O)C1=C(O)C2(C)c3c(O)c(C)c(O)c(C(C)=O)c3OC2CC1=O (stereo not drawn) [NSC280057] | Yes | Induces autophagy | – | – | No | Stimulation of autophagy compared with amino acid and serum starved cells (FIG. 2G) ([1]; listed as C10): promote autophagy; also recorded: stimulated autophagy to levels seen in amino acid and serum starved cells; Induction of cell death ([4]; Table 2, cells not given): causes cell death |
| CN1CCN(CCSC2Cc3cc(Cl)ccc3Sc3ccccc32)CC1 (stereo not drawn) [NSC635366] | Yes | Induces autophagy | – | No | – | Stimulation of autophagy compared with amino acid and serum starved cells (FIG. 2G) ([1]; listed as C8): promote autophagy; also recorded: stimulated autophagy to levels seen in amino acid and serum starved cells; Enhancement of autophagy (GFP-LC3 at autophagic vacuoles) ([1]; listed as Bx19): promote the accumulation of autophagic vacuoles; Enhancement of autophagy (GFP-LC3 at autophagic vacuoles) ([1]; listed as C8): enhanced autophagy; Induction of cell death [4]: causes cell death; Rates of protein degradation (FIG. 5B) [2]: inhibit protein degradation |
| Cl.NC(CSSCC(N)Cc1ccccc1)Cc1ccccc1 (stereo not drawn) [NSC656252] | Yes | Induces autophagy | – | – | – | Induction of cell death ([4]; Table 2, cells not given): causes cell death |
